This is an account of results in US20220323406A1, “METHODS AND COMPOSITIONS FOR DIFFERENTIATING STEM CELLS” (Massachusetts Institute of Technology, priority 2019, published 2022).

Where a name gives a salt, the structure may show the parent alone.

Assay [1] deals with ENR+CD organoids (ISC to Paneth cell differentiation). As to the kind of experiment: Primary screen: CCh-stimulated lysozyme secretion LYZ.S, 2.5-D 384-well ENR+CD organoid differentiation. Type of assay: cell-based, mouse. As to conditions: primary screen. An excerpt:
(§1) High-throughput screening.

For assay [2] the test system is unchanged. As to the kind of experiment: Primary screen: basal (non-stimulated) lysozyme secretion LYZ.NS, 2.5-D 384-well ENR+CD organoid differentiation. Type of assay: cell-based, mouse.
Description: as §1

For assay [3], the system named is ENR+CD organoids. The assay can be described thus: Primary screen: ATP (CellTiter-Glo 3D, CTG) cell number/viability, 2.5-D 384-well ENR+CD organoids.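 For all read-outs here: compounds given at plating and again on day 3 over a 6-day differentiation from ENR+CV stem-cell-enriched precursors, ATP measured on day 6, plate median as control.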 As to conditions: primary screen; for Z.CTG: standard z score.
Setting [4] is: dose 0.08 uM, FC relative to plate median.
[5] abbreviates: dose 0.40 uM, FC relative to plate median.
Where [6] appears, read: dose 2.00 uM, FC relative to plate median.
Where [7] appears, read: dose 10.00 uM, FC relative to plate median.
The mark [8] stands for this setting: primary screen, dose 0.08 uM, FC relative to plate median.
The mark [9] stands for this setting: primary screen, dose 0.08 uM, standard z score.
Setting [10] is: primary screen, dose 0.40 uM, FC relative to plate median.
Where [11] appears, read: primary screen, dose 0.40 uM, standard z score.
[12] abbreviates: primary screen, dose 2.00 uM, FC relative to plate median.
The mark [13] stands for this setting: primary screen, dose 2.00 uM, standard z score.
Setting [14] is: primary screen, dose 10.00 uM, FC relative to plate median.
Where [15] appears, read: primary screen, dose 10.00 uM, standard z score.

Consider `COc1cc2c(N3CCN(C(=O)Nc4ccc(OC(C)C)cc4)CC3)ncnc2cc1OCCCN1CCCCC1` [Tandutinib (MLN518)], for which the Dose.FC.LYZ.S turned out to be 0.145 log2 fold change in assay [1] (setting [4]), 0.178 log2 fold change in assay [1] (setting [5]), 0.093 log2 fold change in assay [1] (setting [6]) and 0.100 log2 fold change in assay [1] (setting [7]). Further, the Dose.FC.LYZ.NS is given as 0.095 log2 fold change in assay [2] (setting [8]), 0.122 log2 fold change in assay [2] (setting [10]), 0.116 log2 fold change in assay [2] (setting [12]) and 0.047 log2 fold change in assay [2] (setting [14]). Further, the Z.LYZ.NS was 0.828 in assay [2] (setting [9]), 1.066 in assay [2] (setting [11]), 1.012 in assay [2] (setting [13]) and 0.407 in assay [2] (setting [15]). For the same molecule, the Dose.FC.CTG in assay [3] (setting [4]) came out at 0.585 log2 fold change; in assay [3] (setting [5]), 0.354 log2 fold change; in assay [3] (setting [6]) it was 0.358 log2 fold change; in assay [3] (setting [7]) it was 0.586 log2 fold change. In addition, the Z.CTG in assay [3] (dose 0.08 uM) amounted to 1.397; in assay [3] (dose 0.40 uM), 0.845; in assay [3] (dose 2.00 uM), 0.856; in assay [3] (dose 10.00 uM), 1.401.
With `COc1cccc2c1C(=O)c1c(O)c3c(c(O)c1C2=O)C[C@@](O)(C(C)=O)C[C@@H]3O[C@H]1C[C@H](N)[C@H](O)[C@H](C)O1` [Daunorubicin HCl], the Dose.FC.LYZ.S in assay [1] (dose 0.08 uM) is on record as −0.096 log2 fold change; in assay [1] (dose 0.40 uM), −0.329 log2 fold change; in assay [1] (dose 2.00 uM), −0.343 log2 fold change; in assay [1] (dose 10.00 uM), −0.374 log2 fold change. Besides, the Dose.FC.LYZ.NS was −0.136 log2 fold change in assay [2] (primary screen, dose 0.08 uM); −0.241 log2 fold change in assay [2] (primary screen, dose 0.40 uM); −0.262 log2 fold change in assay [2] (primary screen, dose 2.00 uM); −0.260 log2 fold change in assay [2] (primary screen, dose 10.00 uM). Besides, the Z.LYZ.NS was −1.188 in assay [2] (primary screen, standard z score, dose 0.08 uM); −2.099 in assay [2] (primary screen, standard z score, dose 0.40 uM); −2.280 in assay [2] (primary screen, standard z score, dose 2.00 uM); −2.262 in assay [2] (primary screen, standard z score, dose 10.00 uM). Also, the Dose.FC.CTG in assay [3] (dose 0.08 uM) is −0.467 log2 fold change; in assay [3] (dose 0.40 uM), −0.601 log2 fold change; in assay [3] (dose 2.00 uM), −0.817 log2 fold change; in assay [3] (dose 10.00 uM), −1.100 log2 fold change.
As for `COc1c(C)c(C(=O)c2ccc(N)c(C(=O)[O-])c2)n2ccccc12.[Na+]` [SSR128129E], the Dose.FC.LYZ.S in assay [1] (setting [4]) is 0.086 log2 fold change; in assay [1] (setting [5]), 0.122 log2 fold change; in assay [1] (setting [6]), 0.023 log2 fold change; in assay [1] (setting [7]), −0.095 log2 fold change. For the same molecule, the Dose.FC.LYZ.NS in assay [2] (setting [8]) was 0.093 log2 fold change; in assay [2] (setting [10]), 0.039 log2 fold change; in assay [2] (setting [12]), 0.030 log2 fold change; in assay [2] (setting [14]), −0.098 log2 fold change. For the same molecule, the Z.LYZ.NS in assay [2] (setting [9]) is listed as 0.807; in assay [2] (setting [11]), 0.339; in assay [2] (setting [13]) it was 0.257; in assay [2] (setting [15]), −0.850. Besides, the Dose.FC.CTG in assay [3] (setting [4]) is 0.088 log2 fold change; in assay [3] (setting [5]) it was 0.228 log2 fold change; in assay [3] (setting [6]) it was 0.122 log2 fold change; in assay [3] (setting [7]) it was −0.026 log2 fold change. The Z.CTG is on record as 0.210 in assay [3] (dose 0.08 uM), 0.545 in assay [3] (dose 0.40 uM), 0.291 in assay [3] (dose 2.00 uM) and −0.063 in assay [3] (dose 10.00 uM).
Turning to `CN[C@H]1CC[C@@H](c2ccc(Cl)c(Cl)c2)c2ccccc21` [Sertraline HCl], the Dose.FC.LYZ.S in assay [1] (setting [4]) is on record as −0.048 log2 fold change; in assay [1] (setting [5]), −0.076 log2 fold change; in assay [1] (setting [6]), 0.023 log2 fold change; in assay [1] (setting [7]), −0.021 log2 fold change. Also, the Dose.FC.LYZ.NS in assay [2] (setting [8]) is given as −0.026 log2 fold change; in assay [2] (setting [10]), −0.082 log2 fold change; in assay [2] (setting [12]) it was 0.052 log2 fold change; in assay [2] (setting [14]), −0.005 log2 fold change. Also, the Z.LYZ.NS in assay [2] (setting [9]) was −0.227; in assay [2] (setting [11]), −0.714; in assay [2] (setting [13]) it was 0.450; in assay [2] (setting [15]), −0.044. Moreover, the Dose.FC.CTG is reported as −0.079 log2 fold change in assay [3] (setting [4]), 0.087 log2 fold change in assay [3] (setting [5]), 0.066 log2 fold change in assay [3] (setting [6]) and 0.043 log2 fold change in assay [3] (setting [7]).
